Laboratory results from PubChem BioAssay (NCI).
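At the GI50, growth is halved. TGI: total growth inhibition.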

Tests used:
Assay in all cases: growth of human tumour cells (NCI), 384-well format
MOLT-4 leukemia = system: MOLT-4 leukemia
A498 renal = system: A498 renal
U251 glioblastoma = system: U251 glioblastoma
NCI-H322M lung = system: NCI-H322M lung
BT-549 breast = system: BT-549 breast
HT29 colon = system: HT29 colon
SK-OV-3 ovarian = system: SK-OV-3 ovarian
UACC-257 melanoma = system: UACC-257 melanoma
MALME-3M melanoma = system: MALME-3M melanoma
SF-539 CNS = system: SF-539 CNS
EKVX NSCLC = system: EKVX NSCLC
KM12 colon = system: KM12 colon
OVCAR-4 ovarian = system: OVCAR-4 ovarian
ACHN renal = system: ACHN renal
M14 melanoma = system: M14 melanoma
SR leukemia = system: SR leukemia
SN12C renal = system: SN12C renal
SF-295 CNS = system: SF-295 CNS
TK-10 renal = system: TK-10 renal
RPMI-8226 leukemia = system: RPMI-8226 leukemia
NCI-H522 lung = system: NCI-H522 lung
SNB-75 CNS = system: SNB-75 CNS
HL-60(TB) leukemia = system: HL-60(TB) leukemia
PC-3 prostate = system: PC-3 prostate
HOP-62 NSCLC = system: HOP-62 NSCLC
HOP-92 NSCLC = system: HOP-92 NSCLC
MDA-MB-231 breast = system: MDA-MB-231 breast
HCT-15 colon = system: HCT-15 colon
786-0 renal = system: 786-0 renal
OVCAR-8 ovarian = system: OVCAR-8 ovarian
CAKI-1 renal = system: CAKI-1 renal
HS 578T breast = system: HS 578T breast
SK-MEL-5 melanoma = system: SK-MEL-5 melanoma
HCC-2998 colon = system: HCC-2998 colon
A549 NSCLC = system: A549 NSCLC
IGROV1 ovarian = system: IGROV1 ovarian
NCI-H460 NSCLC = system: NCI-H460 NSCLC
NCI-H23 lung = system: NCI-H23 lung
NCI-H226 lung = system: NCI-H226 lung
SK-MEL-28 melanoma = system: SK-MEL-28 melanoma
OVCAR-3 ovarian = system: OVCAR-3 ovarian
SNB-19 CNS = system: SNB-19 CNS
MCF7 breast = system: MCF7 breast
RXF 393 renal = system: RXF 393 renal
MDA-MB-435 melanoma = system: MDA-MB-435 melanoma
UACC-62 melanoma = system: UACC-62 melanoma
SW-620 colon = system: SW-620 colon
OVCAR-5 ovarian = system: OVCAR-5 ovarian
NCI/ADR-RES ovarian = system: NCI/ADR-RES ovarian
MDA-MB-468 breast = system: MDA-MB-468 breast
COLO 205 colon = system: COLO 205 colon
DU-145 prostate = system: DU-145 prostate
CCRF-CEM leukemia = system: CCRF-CEM leukemia
SF-268 CNS = system: SF-268 CNS
SK-MEL-2 melanoma = system: SK-MEL-2 melanoma
T-47D breast = system: T-47D breast

## OCc1ccc(-c2nn(Cc3ccccc3)c3ccccc23)o1
MOLT-4 leukemia
  GI50: 12.1 µM
  TGI: 24.7 µM
A498 renal
  GI50: 0.024 µM
  TGI: 0.0655 µM
U251 glioblastoma
  GI50: 13.3 µM
  TGI: 28.1 µM
NCI-H322M lung
  GI50: 33 µM
  TGI: > 100 µM
BT-549 breast
  GI50: 17.4 µM
  TGI: 31.5 µM
HT29 colon
  GI50: 17.9 µM
  TGI: 32.3 µM
SK-OV-3 ovarian
  GI50: 22.5 µM
  TGI: 41.4 µM
UACC-257 melanoma
  GI50: 1.49 µM
  TGI: 3.15 µM
MALME-3M melanoma
  GI50: 20.4 µM
  TGI: 36.4 µM
SF-539 CNS
  GI50: 18.5 µM
  TGI: 34.6 µM
EKVX NSCLC
  GI50: 27.3 µM
  TGI: 68.1 µM
KM12 colon
  GI50: 18.6 µM
  TGI: 34 µM
OVCAR-4 ovarian
  GI50: 23.5 µM
  TGI: 49 µM
ACHN renal
  GI50: 35 µM
  TGI: 81.9 µM
M14 melanoma
  GI50: 21.7 µM
  TGI: 39.7 µM
SR leukemia
  GI50: 3.02 µM
  TGI: 7.56 µM
SN12C renal
  GI50: 50.1 µM
  TGI: > 100 µM
SF-295 CNS
  GI50: 46.6 µM
  TGI: > 100 µM
TK-10 renal
  GI50: 0.374 µM
  TGI: 2.29 µM
RPMI-8226 leukemia
  GI50: 9.64 µM
  TGI: 21.3 µM
NCI-H522 lung
  GI50: 14.6 µM
  TGI: 28.2 µM
SNB-75 CNS
  GI50: 17.2 µM
  TGI: 35.1 µM
HL-60(TB) leukemia
  GI50: 16.6 µM
  TGI: 30.4 µM
PC-3 prostate
  GI50: 19.7 µM
  TGI: 37.3 µM
HOP-62 NSCLC
  GI50: 5.79 µM
  TGI: 26.3 µM
HOP-92 NSCLC
  GI50: 16 µM
  TGI: 30.8 µM
MDA-MB-231 breast
  GI50: 20.3 µM
  TGI: 45.8 µM
HCT-15 colon
  GI50: 23 µM
  TGI: 49.6 µM
786-0 renal
  GI50: 34.5 µM
  TGI: > 100 µM
OVCAR-8 ovarian
  GI50: 23.5 µM
  TGI: 47 µM
CAKI-1 renal
  GI50: 0.427 µM
  TGI: 3.49 µM
HS 578T breast
  GI50: 20.3 µM
  TGI: 42.8 µM
SK-MEL-5 melanoma
  GI50: 18.3 µM
  TGI: 32.5 µM
HCC-2998 colon
  GI50: 20.1 µM
  TGI: 34.9 µM
A549 NSCLC
  GI50: 19.8 µM
  TGI: 44.9 µM
IGROV1 ovarian
  GI50: 0.424 µM
  TGI: 2.31 µM
NCI-H460 NSCLC
  GI50: 16.4 µM
  TGI: 30.3 µM
NCI-H23 lung
  GI50: 25.3 µM
  TGI: 53.1 µM
NCI-H226 lung
  GI50: 0.166 µM
  TGI: 0.314 µM
SK-MEL-28 melanoma
  GI50: 24 µM
  TGI: 41.4 µM
OVCAR-3 ovarian
  GI50: 9.85 µM
  TGI: 21.9 µM
SNB-19 CNS
  GI50: 46.2 µM
  TGI: > 100 µM
MCF7 breast
  GI50: 2.34 µM
  TGI: > 100 µM
RXF 393 renal
  GI50: 11.4 µM
  TGI: 27.5 µM
MDA-MB-435 melanoma
  GI50: 20.8 µM
  TGI: 38 µM
UACC-62 melanoma
  GI50: 1.97 µM
  TGI: 31.4 µM
SW-620 colon
  GI50: 20.2 µM
  TGI: 41.5 µM
OVCAR-5 ovarian
  GI50: 0.369 µM
  TGI: 5.99 µM
NCI/ADR-RES ovarian
  GI50: 21 µM
  TGI: 42.7 µM
MDA-MB-468 breast
  GI50: 0.181 µM
  TGI: 0.328 µM
COLO 205 colon
  GI50: 18.6 µM
  TGI: 36.5 µM
DU-145 prostate
  GI50: 17.4 µM
  TGI: 32.8 µM
CCRF-CEM leukemia
  GI50: 18 µM
  TGI: 32.3 µM
SF-268 CNS
  GI50: 29.8 µM
  TGI: 69.7 µM
SK-MEL-2 melanoma
  GI50: 36.5 µM
  TGI: 54.5 µM
T-47D breast
  GI50: 9.48 µM
  TGI: 34.1 µM
